Laboratory results as given in US4816464A, “10-Substituted benzo[b][1,6]naphthyridines as inhibitors of interleukin 1” (American Home Products Corporation, priority 1987, dated 1989).

Legend:
[1] = test system: IL 1-induced release of neutral protease from rabbit articular chondrocytes; assay: inhibition of IL 1-induced release of neutral protease from rabbit articular chondrocytes (azocoll assay); type: cell-based, rabbit (New Zealand White); conditions: Oryctolagus cuniculus, Chondrocyte, compound added 10 min before human IL 1, 24 h stimulation, read-out: % Inhibition (I.S.D.)
Procedure: The ability of the compounds of the inventions to inhibit interleukin 1 is measured by the ability of the test compounds to inhibit the IL 1-induced release of neutral protease from rabbit articular chondrocytes.
Male New Zealand White rabbits are anesthetized with 50 mg/kg of ketamine (i.m.) and killed by an intracardiac injection of 3 mls. of Nembutal. The knee joints of both legs are resected and the articular surfaces are exposed. Cartilage slices are obtained using a scalpel and are placed in a tissue culture dish (100 mm diameter) containing 10 mls of Hank's balanced salt solution (HBSS). The chondrocytes within the cartilage slices are then liberated by a series of enzyme digestions. The slices are incubated for 10 min. at 37° C. in 0.05% hyaluronidase (Sigma H-3884), rinsed with HBSS and incubated with 0.2% trypsin (Sigma T-2395) for 10 min. at 37° C. The slices are rinsed again and incubated for 10 mins. at 37° C. with 1.2% collagenase (Sigma C-5138). The slices are then rinsed again with HBSS and resuspended in 10 ml of Ham's F-12 medium containing 10% fetal bovine calf serum (FCS) and 0.2% collagenase and incubated overnight at 37° C. in a 5% CO2 incubator. The next day, the medium containing the digested cartilage fragments and liberated chondrocytes is transferred to a 15 ml centrifuge tube and the cells are collected by centrifugation and washed twice and resuspended in Ham's F-12 medium. The cells are then plated into 24-well tissue culture plates (2×10^5 cells/well) and incubated at 37° C. until confluent (usually 4-6 days).
The confluent chondrocytes are rinsed twice with serum-free Ham's F-12 medium and 1 ml is added to each well. Fifty μl of purified human IL 1 (100 Units/ml; Genzyme Corporation, Boston, MA) is then added to stimulate these cells to secrete neutral protease. To measure drug effects, the cells are treated with test compound 10 min. prior to addition of IL 1. The standard screening dose is 10 μM. Twenty-four hours after IL 1 stimulation, supernatant fluids are collected and assayed for neutral protease activity.
The neutral protease activity of chondrocyte supernatant fluids is determined by their ability to degrade an insoluble protease substrate, azocoll (Sigma). Supernatants are treated for 10 min. at room temperature with 350 μM p-aminophenylmurcuric acetate to activate the latent enzyme. Three hundred μl of supernatant is then mixed with 500 μl of a 20 mg/ml suspension of azocoll and incubated at 37° C. for 18-24 hrs. with gentle rocking. The mixtures are centrifuged and the amount of substrate hyrolyzed is determined by measuring the absorbance of the supernatant at 520 nm.
Drug effects are calculated as the % change in enzyme activity (absorbance)by supernatants from drug-treated chondrocytes relative to enzyme activity of supernatants from vehicle-treated chondrocytes as follows: [formula]

carrageenan paw edema = assay: rat carrageenan paw edema assay; type: in vivo, rat (Sprague-Dawley); conditions: for % Change: 1 hour prior to carrageenan, edema at 3 hours; for ED50: Rattus norvegicus, po, 3 h, read-out: Oral ED50 (95% C.L.)
Procedure: The compounds of the invention are tested in the rat carrageenan paw edema assay to determined their ability to inhibit the acute inflammatory response. 140-180 gm male Sprague-Dawley rats, in groups of 6 animals, are injected subcutaneously in the right paw with 0.1 ml of 1% carrageenan at zero time. Mercury plethysmographic readings (ml) of the paw are made at zero time and 3 hours later. Test compounds are suspended or dissolved in 0.5% methylcellulose and given perorally 1 hour prior to carrageenan administration. The increase in paw volume (edema in ml.) produced by the carrageenan is measured. Paw edema is calculated (3 hour volume minus zero time volume), and percent inhibit of edema is determined. Unpaired Student's t-test is used to determine statistical significance.

SMILES	inhibition at 10 µM [1]	also measured
CN1CCc2nc3ccc(Cl)cc3c(Cl)c2C1 [Example 6, 8,10-Dichloro-1,2,3,4-tetrahydro-2-methylbenzo[b][1,6]naphthyridine]	13 ± 6%	–
C=CCCCN1CCc2nc3cc(Cl)ccc3c(NNc3ccccc3)c2C1 [Example 11, 7-Chloro-1,2,3,4-tetrahydro-2-(4-pentenyl)-10-(2-phenyl-hydrazino)benzo[b][1,6]naphthyridine, sesquihydrate]	11 ± 26%	–
CN1CCN(c2c3c(nc4cc(Cl)ccc24)CCN(C)C3)CC1 [Example 16, 7-Chloro-1,2,3,4-tetrahydro-2-methyl-10-(4-methyl-1-piperazinyl)benzo[b][1,6]naphthyridine]	–	inhibition at 5 µM [1]: 14 ± 3%
CN1CCc2nc3cc(Cl)ccc3c(NCCN3CCOCC3)c2C1 [Example 13, 7-Chloro-1,2,3,4-tetrahydro-2-methyl-N-(2-(4-morpholinyl)-ethyl)benzo[b][1,6]naphthyridin-10-amine]	4 ± 13%	–
CN1CCc2nc3cc(Cl)ccc3c(Cl)c2C1 [Example 5]	26 ± 23%	–
CCCCN1CCc2nc3cc(Cl)ccc3c(NNc3ccccc3)c2C1 [Example 8, 2-Butyl-7-chloro-1,2,3,4-tetrahydro-10-(2-phenyl-hydrazino)benzo[b][1,6]naphthyridine]	–	inhibition at 1 µM [1]: 22 ± 6%
CN1CCc2nc3ccc(Cl)cc3c(Nc3ccccc3)c2C1 [Example 19, 10-Anilino-8-chloro-1,2,3,4-tetrahydro-2-methylbenzo[b][1,6]naphthyridine]	23 ± 25%	–
CN1CCc2nc3cc(Cl)ccc3c(NNc3ccccc3)c2C1 [Example 7, 1-(7-Chloro-1,2,3,4-tetrahydro-2-methylbenzo[b][1,6]-naphthyridin-10-yl)-2-phenylhydrazine]	78 ± 13%	inhibition at 1 µM [1]: 35 ± 22%; % Change (carrageenan paw edema; 10 mg/kg perorally): 41%; % Change (carrageenan paw edema; 30 mg/kg perorally): 64%; % Change (carrageenan paw edema; 90 mg/kg perorally): 68%; % Change (carrageenan paw edema; 100 mg/kg perorally): 59%
C=CCCCN1CCc2nc3cc(Cl)ccc3c(Cl)c2C1 [Example 4, 7,10-Dichloro-1,2,3,4-tetrahydro-2-(4-pentenyl)benzo[b][1,6]naphthyridine]	12 ± 5%	–
CCCCN1CCc2nc3cc(Cl)ccc3c(Cl)c2C1 [Example 1, 2-Butyl-7,10-dichloro-1,2,3,4-tetrahydrobenzo[b][1,6]naphthyridine]	3%	–
CN1CCc2nc3ccc(Cl)cc3c(Oc3ccccc3)c2C1 [Example 18, 8-Chloro-1,2,3,4-tetrahydro-2-methyl-10-phenoxybenzo[b][1,6]naphthyridine]	9 ± 28%	–
COCCNc1c2c(nc3cc(Cl)ccc13)CCN(C)C2 [Example 12, 7-Chloro-1,2,3,4-tetrahydro-N-(2-methoxyethyl)-2-methylbenzo[b]-[1,6]naphthyridin-10-amine, three quarter hydrate]	62 ± 28%	–
CN1CCc2nc3ccc(Cl)cc3c(NN)c2C1 [Example 20, (8-Chloro-1,2,3,4-tetrahydro-2-methylbenzo[b][1,6]naphthyridin-10-yl)hydrazine]	–	inhibition at 5 µM [1]: 18%
CN1CCc2nc3cc(Cl)ccc3c(Sc3ccccc3)c2C1 [Example 17, 7-Chloro-1,2,3,4-tetrahydro-2-methyl-10-thiophenylbenzo[b][1,6]naphthyridine]	44 ± 21%	–
CCCCCCCCN1CCc2nc3cc(Cl)ccc3c(Cl)c2C1 [Example 2, 7,10-dichloro-1,2,3,4-tetrahydro-2-octylbenzo[b][1,6]naphthyridine]	51%	–
CN1CCc2nc3ccc(Cl)cc3c(SCCCN)c2C1 [Example 21, 10-(3-Aminopropylthio)-8-chloro-1,2,3,4-tetrahydro-2-methylbenzo[b][1,6]naphthyridine]	42 ± 26%	–
CC(=O)Oc1ccccc1C(=O)O [Aspirin, reference compound]	–	ED50 (carrageenan paw edema): 145 mg/kg
C=CCN1CCc2nc3cc(Cl)ccc3c(NNc3ccccc3)c2C1 [Example 10, 7-Chloro-1,2,3,4-tetrahydro-10-(2-phenylhydrazino)-2-(2-propenyl)benzo[b][1,6]naphthyridine, dihydrate]	62 ± 2%	–
CN1CCc2nc3cc(Cl)ccc3c(Nc3ccccc3)c2C1 [Example 14, 10-Anilino-7-chloro-1,2,3,4-tetrahydro-2-methylbenzo[b][1,6]naphthyridine]	14 ± 4%	–
CN1CCc2nc3cc(Cl)ccc3c(Oc3ccccc3)c2C1 [Example 15, 7-Chloro-1,2,3,4-tetrahydro-2-methyl-10-phenoxybenzo[b][1,6]naphthyridine]	22 ± 28%	–
CCCCCCCCN1CCc2nc3cc(Cl)ccc3c(NNc3ccccc3)c2C1 [Example 9, 7-Chloro-1,2,3,4-tetrahydro-2-octyl-10-(2-phenyl-hydrazino)benzo[6][1,6]naphthyridine]	–	inhibition at 1 µM [1]: 22 ± 6%
COc1ccc2c(c1)c(CC(=O)O)c(C)n2C(=O)c1ccc(Cl)cc1 [Indomethacin, reference compound]	–	ED50 (carrageenan paw edema): 3.7 mg/kg
